Values quoted from earlier work in US8883830B2, “Topical therapy for the treatment of migraines, muscle sprains, muscle spasms, spasticity and related conditions” (Afgin Pharma LLC., priority 2003, dated 2014).

Tests used:
[1] = relative to ergotamine

Structure (SMILES) | emetic activity compared with ergotamine [1] | oral bioavailability
CN1C[C@H](C(=O)N[C@]2(C)O[C@@]3(O)[C@@H]4CCCN4C(=O)[C@H](Cc4ccccc4)N3C2=O)C[C@@H]2c3cccc4[nH]cc(c34)C[C@H]21 [Dihydroergotamine] | about 12 times less active | –
CNS(=O)(=O)CCc1ccc2[nH]cc(C3CCN(C)CC3)c2c1 [naratriptan] | – | ~70%
